Results published in patent publication US8106197B2, “Aminoheteroaryl compounds as protein kinase inhibitors” (Pfizer Inc., priority 2003, dated 2012).

molecular target: T1, HGFR (Homo sapiens, UniProt P08581); assay: HGFR continuous-coupled spectrophotometric assay; assay type: biochemical; details: not given
T1 construct: purchased Upstate 14-526
T1 sequence (P08581 974-1390 limits assumed): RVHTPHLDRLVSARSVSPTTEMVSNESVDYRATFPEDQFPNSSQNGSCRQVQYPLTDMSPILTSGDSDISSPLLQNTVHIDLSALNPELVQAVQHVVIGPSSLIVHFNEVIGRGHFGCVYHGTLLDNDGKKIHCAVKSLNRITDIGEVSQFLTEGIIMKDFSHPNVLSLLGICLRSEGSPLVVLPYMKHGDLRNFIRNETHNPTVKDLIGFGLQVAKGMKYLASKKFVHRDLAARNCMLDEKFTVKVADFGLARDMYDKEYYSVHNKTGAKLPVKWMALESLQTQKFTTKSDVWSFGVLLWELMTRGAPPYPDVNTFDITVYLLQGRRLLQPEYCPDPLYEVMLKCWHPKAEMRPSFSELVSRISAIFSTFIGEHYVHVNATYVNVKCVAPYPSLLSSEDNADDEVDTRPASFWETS

SMILES | % inhibition
Cc1ccc(-c2nnc(COc3cc(-c4ccc(C(=O)N5CCC(N6CCCC6)CC5)cc4)cnc3N)o2)cc1 | % inhibition = 18
Cc1nc(COc2cc(-c3ccc(C(=O)N4CCC(N5CCCC5)CC4)cc3)cnc2N)n(C)n1 | % inhibition = 14
Nc1ncc(-c2ccc(C(=O)N3CCC(N4CCCC4)CC3)cc2)cc1OCc1cccc(C(=O)NCc2ccncc2)c1 | % inhibition = 10
CC(C)Cc1noc(COc2cc(-c3ccc(C(=O)N4CCC(N5CCCC5)CC4)cc3)cnc2N)n1 | % inhibition = 12
CC(Oc1nc(-c2ccc(C(=O)N3CCC[C@H]3CN3CCCC3)cc2)cnc1N)c1c(Cl)cccc1Cl (stereo partly drawn) | % inhibition = 14
Cc1cccc(COc2cc(-c3ccc(C(=O)N4CCC(N5CCCC5)CC4)cc3)cnc2N)n1 | % inhibition = 17
Nc1ncc(-c2ccc(C(=O)N3CCC(N4CCCC4)CC3)cc2)cc1OCc1nc(-c2ccccn2)no1 | % inhibition = 9
CNC(=O)c1ccc(OC)c(-c2noc(OCc3cc(-c4ccc(C(=O)N5CCC(N6CCCC6)CC5)cc4)cnc3N)n2)c1 | % inhibition = 11
Nc1ncc(-c2ccc(C(=O)N3CCC(N4CCCC4)CC3)cc2)cc1OCc1cc(Cl)cc(Cl)c1 | % inhibition = 19
Nc1ncc(-c2ccc(C(=O)N3CCC(N4CCCC4)CC3)cc2)cc1OCc1nc2cc(C(F)(F)F)ccc2s1 | % inhibition = 34
COc1cccc(COc2cc(-c3ccc(C(=O)N4CCC(N5CCCC5)CC4)cc3)cnc2N)c1 | % inhibition = 15
Cc1noc(C)c1COc1cc(-c2ccc(C(=O)N3CCC(N4CCCC4)CC3)cc2)cnc1N | % inhibition = 10
Nc1ncc(-c2ccc(C(=O)N3CCC(N4CCCC4)CC3)cc2)cc1OCc1nc(CS(=O)(=O)c2ccccn2)no1 | % inhibition = 9
Nc1ncc(-c2ccc(C(=O)N3CCC(N4CCCC4)CC3)cc2)cc1OCc1cn2cccnc2n1 | % inhibition = 16
Cc1nc2scc(COc3cc(-c4ccc(C(=O)N5CCC(N6CCCC6)CC5)cc4)cnc3N)c2c(=O)[nH]1 | % inhibition = 10
Nc1ncc(-c2ccc(C(=O)N3CCC(N4CCCC4)CC3)cc2)cc1OCc1cc(F)ccc1Br | % inhibition = 24
CC(Oc1cc(-c2ccc(C(=O)N3CCC(N4CCCC4)CC3)cc2)cnc1N)c1ccccc1 (stereo not drawn) | % inhibition = 10
CN(C)c1ccc(NC(=O)c2cccc(COc3cc(-c4ccc(C(=O)N5CCC(N6CCCC6)CC5)cc4)cnc3N)c2)cc1 | % inhibition = 23
Nc1ncc(-c2ccc(C(=O)N3CCC(N4CCCC4)CC3)cc2)cc1OCc1cccc(C(=O)NC2CCN(Cc3ccccc3)CC2)c1 | % inhibition = 13
COc1c(C)cnc(COc2cc(-c3ccc(C(=O)N4CCC(N5CCCC5)CC4)cc3)cnc2N)c1C | % inhibition = 20
CCCCc1nc(COc2cc(-c3ccc(C(=O)N4CCC(N5CCCC5)CC4)cc3)cnc2N)c[nH]1 | % inhibition = 16
Nc1ncc(-c2ccc(C(=O)N3CCC(N4CCCC4)CC3)cc2)cc1OCc1nc2ncccc2o1 | % inhibition = 17
COc1cc(COc2cc(-c3ccc(C(=O)N4CCC(N5CCCC5)CC4)cc3)cnc2N)cc(OC)c1OC | % inhibition = 10
Cn1nc(-c2ccccc2)c(COc2cc(-c3ccc(C(=O)N4CCC(N5CCCC5)CC4)cc3)cnc2N)c1Cl | % inhibition = 63
Nc1ncc(-c2ccc(C(=O)N3CCC(N4CCCC4)CC3)cc2)cc1OCc1csc(-c2ccc(C(F)(F)F)cc2)n1 | % inhibition = 21
Nc1ncc(-c2ccc(C(=O)N3CCC(N4CCCC4)CC3)cc2)cc1OCc1cc(-c2ccc(Cl)cc2)no1 | % inhibition = 23
CCN1CCCC1CNC(=O)c1cccc(COc2cc(-c3ccc(C(=O)N4CCC(N5CCCC5)CC4)cc3)cnc2N)c1 (stereo not drawn) | % inhibition = 10

same assay, conditions: Table 3; Ki(μM) or I(%); test concentration not given

SMILES | I(%)
C[C@@H]1CN(C(=O)c2ccc(-c3cnc4c(c3)OC(c3ccccc3)C(=O)N4)cc2)C[C@H](C)N1 (stereo partly drawn) [Example I-618, 7-(4-(3,5-Dimethyl-piperazine-1-carbonyl)-phenyl]-2-phenyl-4H-pyrido[3,2-b](1,4]oxazin-3-one] | 0
Cc1cc(C)c(COc2cc(-c3ccc(C(=O)N4CCC(N5CCCC5)CC4)cc3)cnc2N)c(C)c1 [Example I-653, {4-[6-Amino-5-(2,4,6-trimethyl-benzyloxy)-pyridin-3-yl]-phenyl}-(4-pyrrolidin-1-yl-piperidin-1-yl)-methanone] | 2
CC(Oc1cc(-c2ccc(C(=O)N3CCC(N4CCCC4)CC3)cc2)cnc1N)c1ccc(C(=O)NCCCN2CCCC2=O)cc1 (stereo not drawn) [Example I-632, 4-(1-{2-Amino-5-[4-(4-pyrrolidin-1-yl-piperidine-1-carbonyl)-phenyl)-pyridin-3-yloxy}-ethyl)-[3-(2-oxo-pyrrolidin-1-yl)-propyl]-benzamide] | 0
COC(=O)c1cccc(COc2cc(-c3ccc(C(=O)N4CC(C)NC(C)C4)cc3)cnc2N)c1 (stereo not drawn) [Example I-626, 3-{2-Amino-5-[4-(3,5-dimethyl-piperazine-1-carbonyl)-phenyl]-pyridin-3-yloxymethyl}-benzoic acid methyl ester] | 0
Cc1ccccc1COc1cc(-c2ccc(C(=O)N3CC(C)NC(C)C3)cc2)cnc1N (stereo not drawn) [Example I-624, {4-[6-Amino-5-(2-methyl-benzyloxy)-pyridin-3-yl]-phenyl}-(3,5-dimethyl-piperazin-1-yl)-methanone] | 0
CC(=O)c1ccccc1-c1cnc(N)c(OC(C)c2c(Cl)ccc(F)c2Cl)c1 (stereo not drawn) [Example I-562, 1-(2-{6-Amino-5-[1-(2,6-dichloro-3-fluoro-phenyl)-ethoxy]-pyridin-3-yl}-phenyl)-ethanone] | 8
COC(=O)c1ccc(-c2cnc(N)c(OC(C)c3c(Cl)ccc(F)c3Cl)c2)c(C)c1 (stereo not drawn) [Example I-548, 4-{6-Amino-5-[1-(2,6-dichloro-3-fluoro-phenyl)-ethoxy]-Pyndin-3-yl}-3-methyl-benzoic acid methyl ester] | 17
Cc1ccccc1-c1cnc(N)c(OC(C)c2c(Cl)ccc(F)c2Cl)c1 (stereo not drawn) [Example I-565, 3-[1-(2,6-Dichloro-3-fluoro-phenyl)-ethoxy]-5-o-tolyl-pyridin-2-ylamine] | 25
CC1CN(C(=O)c2ccc(-c3cnc(N)c(OCc4c(F)cccc4F)c3)cc2)CC(C)N1 (stereo not drawn) [Example I-620, {4-[6-Amino-5-(2,6-difluoro-benzyloxy)-pyridin-3-yl]-phenyl}-(3,5-dimethyl-piperazin-1-yl)-methanone] | 5
COC(=O)c1cccc(COc2cc(-c3ccc(C(=O)N4CCC(N5CCCC5)CC4)cc3)cnc2N)c1 [Example I-625, 3-{2-Amino-5-[4-(4-pyrrolidin-1-yl-piperidzne-1-carbonyl)-phenyl]-pyridin-3-yloxymethyl)-benzoic acid methyl ester] | 6

same assay, conditions: Table 5; percent c-MET inhibition at 50 nM

SMILES | inhibition at 0.05 µM [%]
COc1ccccc1CC(C)N(C)C(=O)c1ccc(-c2cnc(N)c(OC(C)c3c(Cl)ccc(F)c3Cl)c2)cc1 (stereo not drawn) | 55
CC(Oc1cc(-c2ccc(C(=O)NC[C@@H](C)O)cc2)cnc1N)c1c(Cl)ccc(F)c1Cl (stereo partly drawn) | 79
CCC(COC)NC(=O)c1ccc(-c2cnc(N)c(OC(C)c3c(Cl)ccc(F)c3Cl)c2)cc1 (stereo not drawn) | 59
CC(Oc1cc(-c2ccc(C(=O)N[C@H]3CC[C@H](O)CC3)cc2)cnc1N)c1c(Cl)ccc(F)c1Cl (stereo partly drawn) [drawing 1039] | 73
CC(Oc1cc(-c2ccc(C(=O)N[C@H](CO)c3ccccc3)cc2)cnc1N)c1c(Cl)ccc(F)c1Cl (stereo partly drawn) | 69
CC(=O)N(C)C1CCN(C(=O)c2ccc(-c3cnc(N)c(OC(C)c4c(Cl)ccc(F)c4Cl)c3)cc2)C1 (stereo not drawn) | 70

same assay, conditions: Table 6; percent c-MET inhibition at 1 μM; read-out: % inhibition

SMILES | inhibition at 1 µM [%]
N#CCCN1CCN(C(=O)c2cnc(N)c(OCc3c(Cl)cccc3Cl)c2)CC1 | 19
Nc1ncc(C(=O)NCC(O)c2ccc(O)cc2)cc1OCc1c(Cl)cccc1Cl (stereo not drawn) | 29
Nc1ncc(C(=O)NCc2cc3cc[nH]c3cn2)cc1OCc1c(Cl)cccc1Cl | 28
Nc1ncc(C(=O)NCCc2c[nH]c3ccc(Cl)cc23)cc1OCc1c(Cl)cccc1Cl | 36
NC(=O)C1CCN(C(=O)c2cnc(N)c(OCc3c(Cl)cccc3Cl)c2)CC1 | 29
NC(=O)c1ccc(CC2CCN(C(=O)c3cnc(N)c(OCc4c(Cl)cccc4Cl)c3)CC2)cc1 | 12
Nc1ncc(C(=O)NC2CCN(Cc3ccccc3)C2)cc1OCc1c(Cl)cccc1Cl (stereo not drawn) | 27
CCc1ccc(COCC2CCN(C(=O)c3cnc(N)c(OCc4c(Cl)cccc4Cl)c3)CC2)nc1 | 41
COc1ccccc1CNC(=O)c1cnc(N)c(OCc2c(Cl)cccc2Cl)c1 | 32
CN(C)CC(C)(C)CNC(=O)c1cnc(N)c(OCc2c(Cl)cccc2Cl)c1 | 38
CN(C)c1ccc(CNC(=O)c2cnc(N)c(OCc3c(Cl)cccc3Cl)c2)cc1 | 30
Nc1ncc(C(=O)NCC(F)(F)F)cc1OCc1c(Cl)cccc1Cl | 30
Nc1ncc(C(=O)N2CCN(CCOCCO)CC2)cc1OCc1c(Cl)cccc1Cl | 33
Nc1ncc(C(=O)NCCOc2ccccc2)cc1OCc1c(Cl)cccc1Cl | 66
Nc1ncc(C(=O)N2CCCC(F)(F)C2)cc1OCc1c(Cl)cccc1Cl | 16
Nc1ncc(C(=O)N2CCC3(CC2)CC(CCc2ccnnc2)CO3)cc1OCc1c(Cl)cccc1Cl (stereo not drawn) | 37
Nc1ncc(C(=O)NCCc2c[nH]cn2)cc1OCc1c(Cl)cccc1Cl | 29
Nc1ncc(C(=O)NCCc2ccccc2F)cc1OCc1c(Cl)cccc1Cl | 33
Nc1ncc(C(=O)N2CCc3nnc(CCN4CCOCC4)n3CC2)cc1OCc1c(Cl)cccc1Cl | 27
Nc1ncc(C(=O)N2CCCC2c2ccncc2)cc1OCc1c(Cl)cccc1Cl (stereo not drawn) | 19
Nc1ncc(C(=O)NCc2ccc(OC(F)(F)F)cc2)cc1OCc1c(Cl)cccc1Cl | 24
Nc1ncc(C(=O)N2CCC3(CC2)COC(CCc2cc(O)n[nH]2)C3)cc1OCc1c(Cl)cccc1Cl (stereo not drawn) | 34
Nc1ncc(C(=O)NCc2ccccc2OC(F)(F)F)cc1OCc1c(Cl)cccc1Cl | 31
